This note sets out measurements from US10259810B2, “N-sulfonylated pyrazolo[3,4-b]pyridin-6-carboxamides and method of use” (AbbVie S.à.r.l., priority 2015, dated 2019).

SMILES strings stand for the structures.

What all share (format): cell-based
For assay [1], the target named is T1, ΔF508-CFTR (Homo sapiens, UniProt P13569, DEL508-508).
T1 construct: host or cells: CFBE41o-, doxycycline-inducible
The assay can be described thus: CFTR cell surface levels using HRP-tagged ΔF508-CFTR expressing CFBE cells, in the presence of a co-corrector. The conditions noted are these: HRP-tagged ΔF508-CFTR CFBE cells, in the presence of 3 μM co-corrector; for EC50: read-out: EC50. Summed up:
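Chemiluminescent read-out of surface HRP (15 min, dark) after PBS washes. Activity is normalized as 100×(sample−DMSO)/(3 μM co-corrector alone−DMSO).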

The target in assay [2] is T1, ΔF508-CFTR. The assay can be described thus: CFTR cell surface levels using HRP-tagged ΔF508-CFTR expressing CFBE cells, intrinsic corrector capacity. Also noted: % Activation: concentration or dose not given beside the values. The settings on record: HRP-tagged ΔF508-CFTR expressing CFBE41o- cells, compound alone (intrinsic corrector capacity), 20 hours at 33° C.; for EC50: read-out: EC50. An outline of the steps:
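Surface ΔF508-CFTR was measured as HRP chemiluminescence from an extracellular-loop-4 tag, expressed as percent activity between DMSO and a […] corrector control.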

In the next assay the target is T2, CFTR ΔF508 (Homo sapiens, UniProt P13569, DEL508-508).
T2 construct: bronchial epithelial cells isolated from CF patients homozygous for the CFTR ΔF508 mutation; McGill University; Asterand; University of North Carolina hAEC-CF; host or cells: primary human bronchial epithelial cells from CF patients homozygous for ΔF508, differentiated at air-liquid interface
The assay is described as follows: Chronic TECC assay, primary bronchial epithelial cells of CF patients homozygous for CFTR ΔF508 (corrector, co-corrector and potentiator). The settings on record: chronic TECC, AUC = full area under the curve upon forskolin stimulation; for EC50: read-out: EC50 (nM) (AUC**); for % Activity at 1 μM (AUC**): test compound at 1 μM. An outline of the steps: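 Primary bronchial epithelial cells from ΔF508-homozygous CF patients on collagen IV-coated Transwells were chronically treated with test compound plus corrector and potentiator, which were re-added before recording. Ieq was derived from PD and Rt in NaCl-Ringer, pH 7.4, at 37° C, with apical amiloride and bilateral forskolin, recorded every 2 min over 20 min. Ieq increase was normalized to controls, and EC50 was taken from per-well concentrations.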

T2 sequence (P13569 with tags, fused parts or gaps DEL508-508): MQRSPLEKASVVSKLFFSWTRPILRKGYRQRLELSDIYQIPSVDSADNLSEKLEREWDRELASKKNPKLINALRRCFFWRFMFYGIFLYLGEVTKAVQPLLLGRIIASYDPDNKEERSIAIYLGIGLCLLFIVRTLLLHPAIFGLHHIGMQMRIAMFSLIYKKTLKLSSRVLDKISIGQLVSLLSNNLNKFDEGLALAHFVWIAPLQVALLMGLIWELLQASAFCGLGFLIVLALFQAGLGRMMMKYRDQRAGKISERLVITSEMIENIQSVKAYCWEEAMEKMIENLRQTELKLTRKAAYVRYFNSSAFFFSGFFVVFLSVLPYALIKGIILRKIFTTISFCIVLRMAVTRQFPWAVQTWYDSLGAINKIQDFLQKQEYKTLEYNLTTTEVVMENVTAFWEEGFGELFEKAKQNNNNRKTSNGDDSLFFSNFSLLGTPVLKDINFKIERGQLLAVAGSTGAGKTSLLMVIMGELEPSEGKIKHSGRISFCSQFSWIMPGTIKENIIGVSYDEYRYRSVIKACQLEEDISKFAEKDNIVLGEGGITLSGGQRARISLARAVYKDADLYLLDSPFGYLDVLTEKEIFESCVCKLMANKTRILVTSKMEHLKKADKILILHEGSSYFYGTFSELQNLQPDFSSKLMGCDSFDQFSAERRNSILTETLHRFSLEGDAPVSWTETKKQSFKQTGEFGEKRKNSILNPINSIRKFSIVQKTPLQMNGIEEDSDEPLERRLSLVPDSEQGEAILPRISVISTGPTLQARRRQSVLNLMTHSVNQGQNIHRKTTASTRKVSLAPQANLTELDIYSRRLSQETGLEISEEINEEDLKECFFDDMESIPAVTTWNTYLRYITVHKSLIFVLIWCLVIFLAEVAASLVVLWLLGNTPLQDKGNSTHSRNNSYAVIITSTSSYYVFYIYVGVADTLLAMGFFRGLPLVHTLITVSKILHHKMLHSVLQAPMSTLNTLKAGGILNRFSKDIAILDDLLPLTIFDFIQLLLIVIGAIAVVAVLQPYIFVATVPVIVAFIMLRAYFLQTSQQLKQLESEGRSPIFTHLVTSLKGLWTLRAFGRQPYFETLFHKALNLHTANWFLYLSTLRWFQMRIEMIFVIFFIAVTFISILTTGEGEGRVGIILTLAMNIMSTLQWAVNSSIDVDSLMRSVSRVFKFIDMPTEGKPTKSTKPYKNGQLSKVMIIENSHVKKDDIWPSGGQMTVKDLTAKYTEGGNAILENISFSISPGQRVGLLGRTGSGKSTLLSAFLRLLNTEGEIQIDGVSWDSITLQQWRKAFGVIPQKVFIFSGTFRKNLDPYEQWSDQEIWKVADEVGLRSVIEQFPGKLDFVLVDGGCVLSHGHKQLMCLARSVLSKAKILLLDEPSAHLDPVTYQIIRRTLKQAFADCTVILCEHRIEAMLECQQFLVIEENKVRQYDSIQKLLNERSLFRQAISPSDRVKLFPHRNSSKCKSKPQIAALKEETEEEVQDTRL
T1 sequence (P13569 with tags, fused parts or gaps DEL508-508): as above

`CN(C)S(=O)(=O)NC(=O)c1cc(N2CCC(CCN3CCOCC3)CC2)c2c(C3CCC3)nn(-c3ccc(F)cc3)c2n1` [Compound 416, 3-cyclobutyl-N-(dimethylsulfamoyl)-1-(4-fluorophenyl)-4-{4-[2-(morpholin-4-yl)ethyl]piperidin-1-yl}-1H-pyrazolo[3,4-b]pyridine-6-carboxamide]: the “% Activation” value on ΔF508-CFTR [1] turned out to be 458.65%; at ΔF508-CFTR [2], 288%. For the same molecule, the EC50 came out at 65 nM on ΔF508-CFTR [1], 142 nM on ΔF508-CFTR [2] and 119 nM at CFTR ΔF508. In addition, at CFTR ΔF508, the “% Activity at 1 μM (AUC**)” value worked out at 288.6036%.
As to `COCC1CCN(c2cc(C(=O)NS(=O)(=O)CC3COCCO3)nc3c2c(C2CCC2)nn3-c2ccccc2)CC1` (stereo not drawn) [Compound 417, 3-cyclobutyl-N-[(1,4-dioxan-2-yl)methanesulfonyl]-4-[4-(methoxymethyl)piperidin-1-yl]-1-phenyl-1H-pyrazolo[3,4-b]pyridine-6-carboxamide], at ΔF508-CFTR [1], the “% Activation” value was 539.75% and the EC50 stood at 91.9 nM. In addition, on ΔF508-CFTR [2], the “% Activation” value worked out at 307.45% and the EC50 was 190 nM. The “% Activity at 1 μM (AUC**)” value at CFTR ΔF508 was 256.6667%.
Consider `CS(=O)(=O)NC(=O)c1cc(N2CCC(N3CCOCC3)CC2)c2c(C3CCC3)nn(C3CCCCC3)c2n1` [Compound 418, 3-cyclobutyl-1-cyclohexyl-N-(methanesulfonyl)-4-[4-(morpholin-4-yl)piperidin-1-yl]-1H-pyrazolo[3,4-b]pyridine-6-carboxamide], for which the entries for the “% Activation” value at ΔF508-CFTR [1] and on ΔF508-CFTR [2] were 512.9% and 321.3%, respectively. The EC50 at ΔF508-CFTR [1] was 221 nM; on ΔF508-CFTR [2], 321 nM; on CFTR ΔF508, 19.2 nM. The “% Activity at 1 μM (AUC**)” value at CFTR ΔF508 came out at 196.6667%.
With `CN(C)S(=O)(=O)NC(=O)c1cc(N2CCC(N3CCOCC3)CC2)c2c(C3CCC3)nn(C3CCCCC3)c2n1` [Compound 420, 3-cyclobutyl-1-cyclohexyl-N-(dimethylsulfamoyl)-4-[4-(morpholin-4-yl)piperidin-1-yl]-1H-pyrazolo[3,4-b]pyridine-6-carboxamide], at ΔF508-CFTR [1], the “% Activation” value stood at 486.65% and the EC50 came to 209 nM. Also, on ΔF508-CFTR [2], the “% Activation” value was 283.1% and the EC50 turned out to be 472 nM. Further, the “% Activity at 1 μM (AUC**)” value on CFTR ΔF508 is given as 223.3333%.
As for `CC(C)Oc1nn(C2CCCCC2)c2nc(C(=O)NS(C)(=O)=O)cc(-c3ccc(C(=O)N4CCN(C)CC4)cc3)c12` [Compound 422, 1-cyclohexyl-N-(methanesulfonyl)-4-[4-(4-methylpiperazine-1-carbonyl)phenyl]-3-[(propan-2-yl)oxy]-1H-pyrazolo[3,4-b]pyridine-6-carboxamide], at ΔF508-CFTR [1], the “% Activation” value was determined as 434.33% and the EC50 is 204 nM. Besides, on ΔF508-CFTR [2], the “% Activation” value turned out to be 222.8% and the concentration giving a half-maximal response (EC50) stood at 318 nM. For the same molecule, on CFTR ΔF508, the “% Activity at 1 μM (AUC**)” value was 320%.
`CC(C)Oc1nn(C2CCCCC2)c2nc(C(=O)NS(=O)(=O)N(C)C)cc(-c3ccc(C(=O)N4CCN(C)CC4)cc3)c12` [Compound 423, 1-cyclohexyl-N-(dimethylsulfamoyl)-4-[4-(4-methylpiperazine-1-carbonyl)phenyl]-3-[(propan-2-yl)oxy]-1H-pyrazolo[3,4-b]pyridine-6-carboxamide]: on ΔF508-CFTR [1], the “% Activation” value was determined as 376.85% and the 50% effective concentration (EC50) came to 109 nM. For the same molecule, at ΔF508-CFTR [2], the “% Activation” value is recorded as 175.55% and the concentration for a half-maximal effect (EC50) is 140 nM. In addition, at CFTR ΔF508, the EC50 amounted to 39.8 nM and the “% Activity at 1 μM (AUC**)” value is given as 365%.
Take `CN(C)S(=O)(=O)NC(=O)c1cc(N2CCC(CN3CCOCC3)CC2)c2c(C3CCC3)nn(C3CCCCC3)c2n1` [Compound 424, 3-cyclobutyl-1-cyclohexyl-N-(dimethylsulfamoyl)-4-{4-[(morpholin-4-yl)methyl]piperidin-1-yl}-1H-pyrazolo[3,4-b]pyridine-6-carboxamide]: on ΔF508-CFTR [1], the “% Activation” value is recorded as 453.88% and the 50% effective concentration (EC50) was determined as 92.2 nM. In addition, on ΔF508-CFTR [2], the “% Activation” value is recorded as 249.25% and the EC50 was 244 nM. Also, on CFTR ΔF508 (test compound at 3 μM), the “% Activity at 3 μM (AUC**)” value worked out at 462.0976%.
For the molecule `O=C(NS(=O)(=O)C1CCOC1)c1cc(N2CCC(N3CCOCC3)CC2)c2c(C3CCC3)nn(-c3ccc(F)cc3)c2n1` (stereo not drawn) [Compound 429, 3-cyclobutyl-1-(4-fluorophenyl)-4-[4-(morpholin-4-yl)piperidin-1-yl]-N-(oxolane-3-sulfonyl)-1H-pyrazolo[3,4-b]pyridine-6-carboxamide], the entries for the “% Activation” value at ΔF508-CFTR [1] and on ΔF508-CFTR [2] were 422.8% and 252.1%, respectively. Moreover, the 50% effective concentration (EC50) at ΔF508-CFTR [1] was 205 nM; on ΔF508-CFTR [2], 378 nM; on CFTR ΔF508, 83.8 nM. The “% Activity at 1 μM (AUC**)” value at CFTR ΔF508 is 180%.
As for `CS(=O)(=O)NC(=O)c1cc(N2CCC(CCN3CCOCC3)CC2)c2c(C3CCC3)nn(-c3ccc(F)cc3)c2n1` [Compound 431, 3-cyclobutyl-1-(4-fluorophenyl)-N-(methanesulfonyl)-4-{4-[2-(morpholin-4-yl)ethyl]piperidin-1-yl}-1H-pyrazolo[3,4-b]pyridine-6-carboxamide], on ΔF508-CFTR [1], the “% Activation” value amounted to 568.8% and the EC50 was found to be 47 nM. Besides, at ΔF508-CFTR [2], the “% Activation” value worked out at 344.95% and the EC50 came to 109 nM. Besides, the “% Activity at 1 μM (AUC**)” value at CFTR ΔF508 is listed as 280%.
Take `CC(C1CCN(c2cc(C(=O)NS(=O)(=O)N(C)C)nc3c2c(C2CCC2)nn3-c2ccc(F)cc2)CC1)N1CCOCC1` (stereo not drawn) [Compound 440, 3-cyclobutyl-N-(dimethylsulfamoyl)-1-(4-fluorophenyl)-4-{4-[1-(morpholin-4-yl)ethyl]piperidin-1-yl}-1H-pyrazolo[3,4-b]pyridine-6-carboxamide]: on ΔF508-CFTR [1], the “% Activation” value is listed as 543.55% and the concentration for a half-maximal effect (EC50) turned out to be 55.4 nM. Further, at ΔF508-CFTR [2], the “% Activation” value is 334.8% and the half-maximal effective concentration (EC50) was determined as 129 nM. At CFTR ΔF508, the EC50 came to 2.98 nM and the “% Activity at 1 μM (AUC**)” value is 696.6667%.
For `CC(C)Oc1nn(C2CCCCC2)c2nc(C(=O)NS(C)(=O)=O)cc(-c3ccc(CN4CCN(C)CC4)cc3)c12` [Compound 441, 1-cyclohexyl-N-(methanesulfonyl)-4-{4-[(4-methylpiperazin-1-yl)methyl]phenyl}-3-[(propan-2-yl)oxy]-1H-pyrazolo[3,4-b]pyridine-6-carboxamide], on ΔF508-CFTR [1], the “% Activation” value is recorded as 393.27% and the half-maximal effective concentration (EC50) worked out at 196 nM. For the same molecule, on ΔF508-CFTR [2], the “% Activation” value was determined as 196.1% and the EC50 stood at 350 nM. Further, at CFTR ΔF508, the 50% effective concentration (EC50) stood at 206 nM and the “% Activity at 1 μM (AUC**)” value is 236.6667%.
`CC(C1CCN(c2cc(C(=O)NS(C)(=O)=O)nc3c2c(C2CCC2)nn3-c2ccc(F)cc2)CC1)N1CCOCC1` (stereo not drawn) [Compound 445, 3-cyclobutyl-1-(4-fluorophenyl)-N-(methanesulfonyl)-4-{4-[1-(morpholin-4-yl)ethyl]piperidin-1-yl}-1H-pyrazolo[3,4-b]pyridine-6-carboxamide]: at ΔF508-CFTR [1], the “% Activation” value was 671.25% and the EC50 is 59.1 nM. For the same molecule, on ΔF508-CFTR [2], the “% Activation” value is recorded as 393.1% and the half-maximal effective concentration (EC50) came to 111 nM. In addition, the “% Activity at 1 μM (AUC**)” value on CFTR ΔF508 was found to be 406.6667%.
For the molecule `COCCS(=O)(=O)NC(=O)c1cc(N2CCC(CN3CCOCC3)CC2)c2c(C3CCC3)nn(-c3ccc(F)cc3)c2n1` [Compound 447, 3-cyclobutyl-1-(4-fluorophenyl)-N-(2-methoxyethanesulfonyl)-4-{4-[(morpholin-4-yl)methyl]piperidin-1-yl}-1H-pyrazolo[3,4-b]pyridine-6-carboxamide], on ΔF508-CFTR [1], the “% Activation” value amounted to 543.1% and the half-maximal effective concentration (EC50) is 64.7 nM. For the same molecule, at ΔF508-CFTR [2], the “% Activation” value came to 330.9% and the concentration giving a half-maximal response (EC50) came to 244 nM. Also, on CFTR ΔF508, the “% Activity at 1 μM (AUC**)” value was determined as 330%.
For `O=C(NS(=O)(=O)CCO)c1cc(N2CCC(N3CCOCC3)CC2)c2c(C3CCC3)nn(-c3ccc(F)cc3)c2n1` [Compound 448, 3-cyclobutyl-1-(4-fluorophenyl)-N-(2-hydroxyethanesulfonyl)-4-[4-(morpholin-4-yl)piperidin-1-yl]-1H-pyrazolo[3,4-b]pyridine-6-carboxamide], at ΔF508-CFTR [1], the “% Activation” value came to 431.1% and the half-maximal effective concentration (EC50) amounted to 181 nM. Also, on ΔF508-CFTR [2], the “% Activation” value is reported as 258.2% and the EC50 worked out at 477 nM. Besides, at CFTR ΔF508, the “% Activity at 1 μM (AUC**)” value was determined as 116.8948%.
Consider `CN(C)S(=O)(=O)NC(=O)c1cc(N2CCC(N3CCOCC3)CC2)c2c(C3CCC3)nn(-c3ccccc3)c2n1` [Compound 456, 3-cyclobutyl-N-(dimethylsulfamoyl)-4-[4-(morpholin-4-yl)piperidin-1-yl]-1-phenyl-1H-pyrazolo[3,4-b]pyridine-6-carboxamide], for which, on ΔF508-CFTR [1], the “% Activation” value is 457.7% and the EC50 came to 93.3 nM. Besides, at ΔF508-CFTR [2], the “% Activation” value came out at 268.4% and the half-maximal effective concentration (EC50) was 158 nM. In addition, on CFTR ΔF508, the “% Activity at 1 μM (AUC**)” value came out at 261.1621%.

By EC50 is commonly meant the midpoint of the concentration-response curve.
